Active and inactive are the calls of the source. No cut-off for these calls is given here.
Key:
[1] = system: Rattus norvegicus; experiment: (§1) Cardioprotective activity in Sprague-Dawley rat model of LAD coronary artery ligation-induced ischemia/reperfusion assessed as infarct size of left ventricle size at 20 mg/kg, ig pretreated twice a day for 3 days and measured 24 hrs post-reperfusion by TTC staining based assay (reference value: 49.1 %); format: functional
[2] = system: Cardiac muscle cell; experiment: Cytoprotective activity against OGD/reperfusion induced injury in Sprague-Dawley rat cardiomyocytes assessed as effect on cell viability at 0.1 uM pretreated for 24 hrs followed by OGD for 2 hrs and subsequent reperfusion for 24 hrs (reference value: 43.9 to 45.4 +/- 1.1 %); format: functional
[3] = system: Cardiac muscle cell; experiment: Cytotoxicity against Sprague-Dawley rat cardiomyocytes assessed as inhibition of cell growth at 10 uM treated for 50 hrs by MTT assay; format: cell-based
[4] = system: Cardiac muscle cell; experiment: Cytoprotective activity against OGD/reperfusion induced injury in Sprague-Dawley rat cardiomyocytes assessed as effect on cell viability at 1 uM pretreated for 24 hrs followed by OGD for 2 hrs and subsequent reperfusion for 24 hrs (reference value: 43.9 to 45.4 +/- 1.1 %); format: functional
[5] = system: Cardiac muscle cell; experiment: Cytoprotective activity against OGD/reperfusion induced injury in Sprague-Dawley rat cardiomyocytes assessed as effect on cell viability at 10 uM pretreated for 24 hrs followed by OGD for 2 hrs and subsequent reperfusion for 24 hrs (reference value: 43.9 to 45.4 +/- 1.1 %); format: functional
[6] = system: Rattus norvegicus; experiment: as §1, with “40” for “20”; format: functional
[7] = system: Rattus norvegicus; experiment: Cardioprotective activity in ig dosed Sprague-Dawley rat model of LAD coronary artery ligation-induced ischemia/reperfusion assessed as myocardial cell swelling at 10 to 40 mg/kg, ig pretreated twice a day for 3 days and measured 24 hrs post-reperfusion by hematoxylin and eosin staining based assay; format: functional, organism-based
[8] = system: Rattus norvegicus; experiment: Cardioprotective activity in ig dosed Sprague-Dawley rat model of LAD coronary artery ligation-induced ischemia/reperfusion assessed as as infarct size of left ventricle size pretreated twice a day for 3 days and measured 24 hrs post-reperfusion by TTC staining based assay; format: functional, organism-based
[9] = system: Rattus norvegicus; experiment: Cardioprotective activity in ig dosed Sprague-Dawley rat model of LAD coronary artery ligation-induced ischemia/reperfusion assessed as change in myocardial structure at 10 to 40 mg/kg, ig pretreated twice a day for 3 days and measured 24 hrs post-reperfusion by hematoxylin and eosin staining based assay; format: functional, organism-based
[10] = system: Rattus norvegicus; experiment: Cardioprotective activity in ig dosed Sprague-Dawley rat model of LAD coronary artery ligation-induced ischemia/reperfusion assessed as reduction in serum cardiac troponin1 level pretreated twice a day for 3 days and measured 24 hrs post-reperfusion; format: functional, organism-based

| SMILES | Activity [1] [%] | Activity [2] [%] | Activity [3] | Activity [4] [%] | Activity [5] [%] | Activity [6] [%] | Activity [7] | Activity [8] | Activity [9] | inhibition [10] |
| --- | --- | --- | --- | --- | --- | --- | --- | --- | --- | --- |
| C[C@H](CS)C(=O)N1CCC[C@H]1C(=O)O [CAPTOPRIL] | 34 | – | – | – | – | – | – | – | – | – |
| CC1(C)CCC[C@](C)([C@H]2CC[C@]3(C)[C@@H]2[C@H](O)C[C@@H]2[C@@]4(C)Cc5c([nH]c6ccc(F)cc56)C(C)(C)[C@@H]4C(=O)C[C@]23C)O1 | – | 54.6 | Non-Toxic | 58.8 | 63.6 | – | – | – | – | – |
| CC1(C)CCC[C@](C)([C@H]2CC[C@]3(C)[C@@H]2[C@H](O)C[C@@H]2[C@@]4(C)CC[C@H](O)C(C)(C)[C@@H]4[C@H](O)C[C@]23C)O1 | – | 47.8 | Non-Toxic | 52.3 | 61.9 | 30.6 | – | – | – | – |
| CC1(C)CCC[C@](C)([C@H]2CC[C@]3(C)[C@@H]2[C@H](O)C[C@@H]2[C@@]4(C)Cc5c([nH]c6ccc(OC(F)(F)F)cc56)C(C)(C)[C@@H]4C(=O)C[C@]23C)O1 | – | 64.4 | Non-Toxic | 70.8 | 78.4 | – | – | – | – | – |
| CC1(C)CCC[C@](C)([C@H]2CC[C@]3(C)[C@@H]2[C@H](O)C[C@@H]2[C@@]4(C)Cc5c(n[nH]c5C(F)(F)F)C(C)(C)[C@@H]4[C@H](O)C[C@]23C)O1 | – | 60.2 | Non-Toxic | 67.6 | 76.4 | – | – | – | – | – |
| CC1(C)CCC[C@](C)([C@H]2CC[C@]3(C)[C@@H]2[C@H](O)C[C@@H]2[C@@]4(C)Cc5c(CO)nn(-c6ccccc6)c5C(C)(C)[C@@H]4[C@H](O)C[C@]23C)O1 | – | 51.6 | Non-Toxic | 56.6 | 61.2 | – | – | – | – | – |
| CC1(C)CCC[C@](C)([C@H]2CC[C@]3(C)[C@@H]2[C@H](O)C[C@@H]2[C@@]4(C)Cc5c(C(=O)O)nn(-c6ccccc6)c5C(C)(C)[C@@H]4[C@H](O)C[C@]23C)O1 | – | 51.2 | Non-Toxic | 56.2 | 63.1 | – | – | – | – | – |
| CC1(C)CCC[C@](C)([C@H]2CC[C@]3(C)[C@@H]2[C@H](O)C[C@@H]2[C@@]4(C)Cc5c(C(=O)O)noc5C(C)(C)[C@@H]4[C@H](O)C[C@]23C)O1 | – | 68.2 | Non-Toxic | 79.2 | 89.2 | 20.5 | inactive | Dose-dependent effect | inactive | Dose-dependent effect |
| CC1(C)CCC[C@](C)([C@H]2CC[C@]3(C)[C@@H]2[C@H](O)C[C@@H]2[C@@]4(C)Cc5sc(Br)nc5C(C)(C)[C@@H]4C(=O)C[C@]23C)O1 | – | 59.5 | Non-Toxic | 69.2 | 77.2 | – | – | – | – | – |
| CC1(C)CCC[C@](C)([C@H]2CC[C@]3(C)[C@@H]2[C@H](O)C[C@@H]2[C@@]4(C)Cc5c(CO)noc5C(C)(C)[C@@H]4[C@H](O)C[C@]23C)O1 | – | 55.1 | Non-Toxic | 60.9 | 66.8 | – | – | – | – | – |
| CC1(C)CCC[C@](C)([C@H]2CC[C@]3(C)[C@@H]2[C@H](O)C[C@@H]2[C@@]4(C)Cc5sc(-c6ccc(C(F)(F)F)cc6)nc5C(C)(C)[C@@H]4C(=O)C[C@]23C)O1 | – | 51.6 | Non-Toxic | 57.9 | 62.9 | – | – | – | – | – |
| CC(=O)Nc1nc2c(s1)C[C@]1(C)[C@H]3C[C@@H](O)[C@@H]4[C@@H]([C@@]5(C)CCCC(C)(C)O5)CC[C@@]4(C)[C@]3(C)CC(=O)[C@H]1C2(C)C | – | 48.6 | Non-Toxic | 53.6 | 61.2 | – | – | – | – | – |
| CC1(C)CCC[C@](C)([C@H]2CC[C@]3(C)[C@@H]2[C@H](O)C[C@@H]2[C@@]4(C)Cc5sc(CC#N)nc5C(C)(C)[C@@H]4C(=O)C[C@]23C)O1 | – | 58.6 | Non-Toxic | 64.6 | 70.1 | – | – | – | – | – |
